Measured values from US9120749B2, “Quinoline derivatives and MELK inhibitors containing the same” (ONCOTHERAPY SCIENCE, INC., priority 2010, dated 2015).

Legend:
BT-549 cells = test: Cell-based assay: anti-proliferative activity, Cell Counting Kit-8, 72 hours (BT-549); conditions: Homo sapiens, BT-549, 72 h, BT549 cells, MELK-expressing; Cell Counting Kit-8 at 72 hours
Outline: (§1)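 Cellular growth is read by CCK-8 colorimetric kit 72 h after inhibitor addition to seeded cells, and IC50 values are derived from the resulting data; MELK protein levels in these lines are checked beforehand by immunoblotting whole crude lysate.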

HT-1197 cells = test: Cell-based assay: anti-proliferative activity, Cell Counting Kit-8, 72 hours (HT-1197, negative control without MELK expression); conditions: Homo sapiens, HT1197, 72 h
Outline: as §1

MELK = MELK (Homo sapiens, UniProt Q14680); test: Kinase assay: MELK activity, phosphorylation of FITC-labeled histone H3 peptide measured by IMAP fluorescence polarization; type: biochemical; conditions: 50 micro-M ATP, FITC-labeled histone H3 peptide substrate, IMAP fluorescence polarization; read-out: IC50 (μM) (kinase assay)
Sequence of MELK (Q14680 whole entry, looked up): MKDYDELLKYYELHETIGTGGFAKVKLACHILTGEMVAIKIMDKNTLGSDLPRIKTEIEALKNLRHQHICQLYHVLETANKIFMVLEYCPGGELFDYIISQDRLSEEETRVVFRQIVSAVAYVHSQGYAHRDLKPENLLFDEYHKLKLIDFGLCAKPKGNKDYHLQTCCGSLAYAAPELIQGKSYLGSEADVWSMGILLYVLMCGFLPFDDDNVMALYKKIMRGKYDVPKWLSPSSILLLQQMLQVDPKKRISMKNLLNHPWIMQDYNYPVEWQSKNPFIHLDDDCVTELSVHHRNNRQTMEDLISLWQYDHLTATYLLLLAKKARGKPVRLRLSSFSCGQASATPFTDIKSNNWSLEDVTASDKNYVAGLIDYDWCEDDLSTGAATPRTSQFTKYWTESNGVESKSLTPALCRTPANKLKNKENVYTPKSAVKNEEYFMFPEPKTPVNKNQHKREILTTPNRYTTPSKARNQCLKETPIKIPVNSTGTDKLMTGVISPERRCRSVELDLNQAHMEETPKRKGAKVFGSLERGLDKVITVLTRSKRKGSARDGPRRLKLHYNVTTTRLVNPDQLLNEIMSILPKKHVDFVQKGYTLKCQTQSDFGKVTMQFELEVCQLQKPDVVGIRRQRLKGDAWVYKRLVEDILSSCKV
Outline: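 FP readout: FITC-histone H3 peptide phosphorylation, read 0.5 h (RT) after stopping with 3x volume of IMAP progressive binding solution. Final DMSO 1%.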

A549 cells = test: Cell-based assay: anti-proliferative activity, Cell Counting Kit-8, 72 hours (A549); conditions: Homo sapiens, A549, 72 h
Outline: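 Cell Counting Kit-8 read-out of A549 growth after 72 hours of inhibitor exposure, cells plated in 96-well format. Values reported as IC50.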

T47D cells = test: Cell-based assay: anti-proliferative activity, Cell Counting Kit-8, 72 hours (T47D); conditions: Homo sapiens, T47D, 72 h
Outline: as §1

DU4475 = test: Cell-based assay: anti-proliferative activity, Cell Counting Kit-8, 72 hours (DU4475); conditions: Homo sapiens, DU-4475, DU4475 cells
[1] = HT1197 cells, no MELK expression (negative control), Cell Counting Kit-8 at 72 hours
[2] = MELK-expressing, Cell Counting Kit-8 at 72 hours
[3] = HT1197 cells (negative control, no MELK expression), 72 hours

| SMILES | IC50 (BT-549 cells) [µM] | IC50 (HT-1197 cells; [1]) [µM] | IC50 (MELK) [µM] | IC50 (A549 cells; [2]) [µM] | IC50 (T47D cells; [2]) [µM] | IC50 (DU4475) [µM] | IC50 (HT-1197 cells; [3]) [µM] | IC50 (A549 cells; 72 hours) [µM] | IC50 (T47D cells) [µM] |
| --- | --- | --- | --- | --- | --- | --- | --- | --- | --- |
| O=C(c1cnc2ccc(-c3ccc(O)c(Cl)c3)cc2c1N[C@H]1CC[C@H](N2CCCC2)CC1)C1CC1 [Example 342, {6-(3-Chloro-4-hydroxyphenyl)-4-[trans-4-(pyrrolidin-1-yl)cyclohexylamino]quinolin-3-yl}(cyclopropyl)methanone] | 0.68 | 1.8 | 0.0046 | 0.27 | 0.25 | – | – | – | – |
| COc1cc(-c2ccc3ncc(C(=O)C4CC4)c(N[C@H]4CC[C@H](N5CCCC5)CC4)c3c2)cc(Cl)c1O [Example 343, {6-(3-Chloro-4-hydroxy-5-methoxyphenyl)-4-[trans-4-(pyrrolidin-1-yl)cyclohexylamino]quinolin-3-yl}(cyclopropyl)methanone] | 0.68 | 3.4 | 0.0021 | 0.2 | 0.33 | – | – | – | – |
| CN(C)Cc1ccc(Nc2c(C(=O)C3CC3)cnc3ccc(-c4cc(Cl)c(O)c(Cl)c4)cc23)cc1 [Example 345, Cyclopropyl[6-(3,5-dichloro-4-hydroxyphenyl)-4-{4-[(dimethylamino)methyl]phenylamino}quinolin-3-yl]methanone] | 0.1 | 0.67 | 0.0032 | 0.051 | 0.054 | – | – | – | – |
| CN(C)CC1CCN(c2c(C(=O)C3CC3)cnc3ccc(-c4cc(F)c(O)c(Cl)c4)cc23)CC1 [Example 347, [6-(3-Chloro-5-fluoro-4-hydroxyphenyl)-4-{4-[(dimethylamino)methyl]piperidin-1-yl}quinolin-3-yl](cyclopropyl)methanone] | 0.62 | 1.8 | 0.0024 | 0.48 | 0.42 | – | – | – | – |
| COc1cc(-c2ccc3ncc(C(=O)CC(C)C)c(N[C@H]4CC[C@H](N(C)C)CC4)c3c2)cc(Cl)c1O [Example 348, 1-{6-(3-Chloro-4-hydroxy-5-methoxyphenyl)-4-[trans-4-(dimethylamino)cyclohexylamino]quinolin-3-yl}-3-methylbutan-1-one] | 0.93 | 3 | 0.0043 | 0.47 | 0.41 | – | – | – | – |
| CN1CCN(C2CCN(c3c(C(=O)C4CC4)cnc4ccc(-c5cc(F)c(O)c(Cl)c5)cc34)CC2)CC1 [Example 349, {6-(3-Chloro-5-fluoro-4-hydroxyphenyl)-4-[4-(4-methylpiperazin-1-yl)piperidin-1-yl]quinolin-3-yl}(cyclopropyl)methanone] | 0.91 | 5.8 | 0.0046 | 0.98 | 0.49 | – | – | – | – |
| CN1CCN(C2CCN(c3c(C(=O)C4CC4)cnc4ccc(-c5ccc(O)c(Cl)c5)cc34)CC2)CC1 [Example 350, {6-(3-Chloro-4-hydroxyphenyl)-4-[4-(4-methylpiperazin-1-yl)piperidin-1-yl]quinolin-3-yl}(cyclopropyl)methanone] | 0.98 | 2.5 | 0.005 | 0.44 | 0.26 | – | – | – | – |
| COc1cc(-c2ccc3ncc(C(=O)C4CC4)c(N4CCC(N5CCN(C)CC5)CC4)c3c2)cc(Cl)c1O [Example 351, {6-(3-Chloro-4-hydroxy-5-methoxyphenyl)-4-[4-(4-methylpiperazin-1-yl)piperidin-1-yl]quinolin-3-yl}(cyclopropyl)methanone] | 0.67 | 3 | 0.0022 | 0.33 | 0.34 | – | – | – | – |
| CCOc1cc(-c2ccc3ncc(C(=O)C4CC4)c(N4CCC(CN(C)C)CC4)c3c2)ccc1O [Example 353, Cyclopropyl[4-{4-[(dimethylamino)methyl]piperidin-1-yl}-6-(3-ethoxy-4-hydroxyphenyl)quinolin-3-yl]methanone] | 1.5 | 2.5 | 0.0017 | 0.68 | 0.61 | – | – | – | – |
| COc1cc(-c2ccc3ncc(C(=O)C4CC4)c(-c4ccc(CN(C)C)cc4)c3c2)cc(Cl)c1O [Example 356] | 0.87 | 3.5 | 0.0042 | 0.45 | 0.46 | – | – | – | – |
| CCN(CC)C1CCC(Nc2c(C(=O)C3CCCC3)cnc3ccc(-c4cc(F)c(O)c(Cl)c4)cc23)CC1 (stereo not drawn) [Example 386, (6-(3-chloro-5-fluoro-4-hydroxyphenyl)-4-(4-(diethylamino)cyclohexylamino)quinolin-3-yl)(cyclopentyl)methanone] | – | – | 0.0092 | – | – | 0.29 | 0.78 | 0.4 | 0.41 |
| CN(C)Cc1ccc(Nc2c(C(=O)C3CCCC3)cnc3ccc(-c4cc(F)c(O)c(Cl)c4)cc23)cc1 [Example 388, (6-(3-chloro-5-fluoro-4-hydroxyphenyl)-4-(4-((dimethylamino)methyl)phenylamino)quinolin-3-yl)(cyclopentyl)methanone] | – | – | 0.014 | – | – | 0.21 | 1.5 | 0.52 | 0.52 |
| COc1cc(-c2ccc3ncc(C(C)=O)c(N[C@H]4CC[C@H](CN(C)C)CC4)c3c2)cc(Cl)c1O [Example 392] | – | – | 0.0034 | – | – | 0.44 | 10 | 0.27 | 0.25 |
| COc1cc(-c2ccc3ncc(C(=O)C4CC4)c(N4CCN(CCN5CCCC5)CC4)c3c2)cc(Cl)c1O [Example 394, (6-(3-chloro-4-hydroxy-5-methoxyphenyl)-4-(4-(2-(pyrrolidin-1-yl)ethyl)piperazin-1-yl)quinolin-3-yl)(cyclopropyl)methanone] | – | – | 0.0018 | – | – | 0.24 | 5.3 | 0.25 | 0.4 |
| CN1CCN(Cc2ccc(Nc3c(C(=O)C4CC4)cnc4ccc(-c5cc(Cl)c(O)c(Cl)c5)cc34)cc2)CC1 [Example 397, Cyclopropyl{6-(3,5-dichloro-4-hydroxyphenyl)-4-[4-((4-methylpiperazin-1-yl)methyl)phenylamino]quinolin-3-yl}methanone] | – | – | 0.0076 | – | – | 0.088 | 5.2 | 0.15 | 0.33 |
| COc1cc(-c2ccc3ncc(C(=O)C4CC4)c(Nc4ccc(CN5CCN(C)CC5)cc4)c3c2)cc(Cl)c1O [Example 398, (6-(3-chloro-4-hydroxy-5-methoxyphenyl)-4-(4-((4-methylpiperazin-1-yl)methyl)phenylamino)quinolin-3-yl)(cyclopropyl)methanone] | – | – | 0.0084 | – | – | 0.73 | 4.7 | 0.38 | 0.78 |
| CN(C)Cc1ccc(Nc2c(S(C)(=O)=O)cnc3ccc(-c4cc(F)c(O)c(Cl)c4)cc23)cc1 [Example 399, 2-chloro-4-(4-(4-((dimethylamino)methyl)phenylamino)-3-(methylsulfonyl)quinolin-6-yl)-6-fluorophenol] | – | – | 0.016 | – | – | 0.16 | 1.9 | 0.47 | 0.27 |
| CN(C)Cc1ccc(Nc2c(S(C)(=O)=O)cnc3ccc(-c4cc(Cl)c(O)c(Cl)c4)cc23)cc1 [Example 400, 2,6-dichloro-4-(4-((4-((dimethylamino)methyl)phenyl)amino)-3-(methylsulfonyl)quinolin-6-yl)phenol] | – | – | 0.0034 | – | – | 0.07 | 1.8 | 0.3 | 0.23 |
| COc1cc(-c2ccc3ncc(C#N)c(N[C@H]4CC[C@H](N(C)C)CC4)c3c2)cc(Cl)c1O [Example 447] | – | – | – | – | – | 0.076 | 2 | 0.4 | 0.15 |
| O=C(c1cnc2ccc(-c3cc(Cl)c(O)c(Cl)c3)cc2c1Nc1ccc(CN2CCOCC2)cc1)C1CC1 [Example 463] | – | – | – | – | – | 0.26 | 3.6 | 0.43 | 0.52 |
| CN(C)Cc1ccc(Nc2c([S+](C)[O-])cnc3ccc(-c4cc(Cl)c(O)c(Cl)c4)cc23)cc1 (stereo not drawn) [Example 473] | – | – | – | – | – | 0.6 | 2.4 | 1.2 | 0.43 |
| CN1CCN(Cc2ccc(-c3c(C(=O)C4CC4)cnc4ccc(-c5cc(Cl)c(O)c(Cl)c5)cc34)cc2)CC1 [Example 482, cyclopropyl(6-(3,5-dichloro-4-hydroxyphenyl)-4-(4-((4-methylpiperazin-1-yl)methyl)phenyl)quinolin-3-yl)methanone] | – | – | – | – | – | 0.9 | 3.1 | 0.96 | 0.54 |
| COc1cc(-c2ccc3ncc([S+](C)[O-])c(N[C@H]4CC[C@H](N)CC4)c3c2)cc(Cl)c1O (stereo partly drawn) [Example 500] | – | – | – | – | – | 1.8 | 13 | 4.5 | 1.6 |
| N#Cc1ncc(-c2ccc3ncc(C(=O)C4CC4)c(Nc4ccc(CN)cc4)c3c2)cn1 [Example 509, 5-(4-(4-(aminomethyl)phenylamino)-3-(cyclopropanecarbonyl)quinolin-6-yl)pyrimidine-2-carbonitrile] | – | – | – | – | – | 0.6 | 0.95 | 0.79 | 0.19 |
